# Legend:
# [1] = Solubility of carbon dioxide in nicotine solutions (Example 3, weight change); assay type: physicochemical
# Description: Into weighed plastic 500 ml bottles containing approximately 50 g of a solution of nicotine in glycerol/propylene glycol according to Table 3 were added 4-5 g solid carbon dioxide (dry-ice), sufficient to raise the pressure to 4-5 bar. The mixtures were held under pressure for 3 days before the pressure was released, and the mixtures were then stood at ambient temperature for 48 hours and then the new weight of the solution measured. The change in weight before and after addition of the CO2 enable the amount of CO2 incorporated into the solution to be derived, as well as the molar ratio of CO2 to nicotine.
# [2] = Solubility of carbon dioxide in nicotine solutions with low propylene glycol (Example 5); assay type: physicochemical; conditions: for Added CO2: ~50.0 g solution, average of two experiments
# Excerpt: Using the same methodology as that of Example 3, solutions of nicotine in glycerol, nicotine, water, and propylene glycol (if present) were made as detailed in the Table 4. In Table 4, propylene glycol is referred to as “PG”. The propylene glycol, when present, originated from the addition of a tobacco flavouring composition. The tobacco flavouring composition, referred to in Table 4 as “TF”, (made up of tobacco flavouring dissolved/dispersed in propylene glycol) included propylene glycol at 65% by weight. […] For each experiment, the solution used was within 0.2 g of 50.0 g. As with Example 3, the solutions were weighed before and after the addition of the CO2, and the change in weight before and after addition of the CO2 enabled the amount of CO2 incorporated into the solution to be derived. The amount of carbon dioxide reported as being incorporated into solution is the average result achieved across two experiments.
# [3] = glycerol 78.3, nicotine 5, water 8.7, TF 8, PG 5.2 wt %
# [4] = glycerol 81, nicotine 2, water 9, TF 8, PG 5.2 wt %
# [5] = glycerol 82.65, nicotine 5, water 4.35, TF 8, PG 5.2 wt %
# [6] = glycerol 85.5, nicotine 2, water 4.5, TF 8, PG 5.2 wt %
# [7] = glycerol 85.5, nicotine 5, water 9.5, TF 0, PG 0 wt %
# [8] = glycerol 88.2, nicotine 2, water 9.8, TF 0, PG 0 wt %
# [9] = glycerol 90.25, nicotine 5, water 4.75, TF 0, PG 0 wt %
# [10] = glycerol 93.1, nicotine 2, water 4.9, TF 0, PG 0 wt %
smiles,measurement,setting,value
"O=C=O [CO2, carbon dioxide]",Solubility CO2,"[1]; 70:30 glycerol:propylene glycol, nicotine 0 g/kg, 4-5 bar 3 days, then 48 h ambient",3.8 g/kg
same,Added CO2,"[1]; 70:30 glycerol:propylene glycol, nicotine 0 g/kg, 50.00 g solution, 4-5 bar 3 days, then 48 h ambient",0.19 g
same,Solubility CO2,"[1]; 70:30 glycerol:propylene glycol, nicotine 0 g/kg, estimated density 1.19 kg/L",4.5 g/L
same,Molar ratio CO2/nicotine,"[1]; 70:30 glycerol:propylene glycol, nicotine 4 g/kg (0.4%)",8.77 mol/mol
same,Added CO2,"[1]; 70:30 glycerol:propylene glycol, nicotine 4 g/kg (0.4%), 49.96 g solution, average of two results",0.48 g
same,Solubility CO2,"[1]; 70:30 glycerol:propylene glycol, nicotine 4 g/kg (0.4%), average of two results",9.5 g/kg
same,Solubility CO2,"[1]; 70:30 glycerol:propylene glycol, nicotine 4 g/kg (0.4%), estimated density 1.19 kg/L",11.3 g/L
same,weight increase (CO2 incorporated),[1]; comparative: 20 g pure nicotine charged similarly with carbon dioxide,did not result in any weight increase at all
same,Solubility of CO2,[2]; [3],13 g/kg
same,Solubility of CO2,"[2]; glycerol 78.3, nicotine 5, water 8.7, TF 8, PG 5.2 wt %, estd density 1.21 kg/l",16 g/L
same,Added CO2,[2]; [3],0.66 g
same,Solubility of CO2,[2]; [4],12 g/kg
same,Solubility of CO2,"[2]; glycerol 81, nicotine 2, water 9, TF 8, PG 5.2 wt %, estd density 1.21 kg/l",14 g/L
same,Added CO2,[2]; [4],0.58 g
same,Solubility of CO2,[2]; [5],16 g/kg
same,Solubility of CO2,"[2]; glycerol 82.65, nicotine 5, water 4.35, TF 8, PG 5.2 wt %, estd density 1.22 kg/l",19 g/L
same,Added CO2,[2]; [5],0.79 g
same,Solubility of CO2,[2]; [6],11 g/kg
same,Solubility of CO2,"[2]; glycerol 85.5, nicotine 2, water 4.5, TF 8, PG 5.2 wt %, estd density 1.23 kg/l",13 g/L
same,Added CO2,[2]; [6],0.54 g
same,Solubility of CO2,[2]; [7],16 g/kg
same,Solubility of CO2,"[2]; glycerol 85.5, nicotine 5, water 9.5, TF 0, PG 0 wt %, estd density 1.22 kg/l",20 g/L
same,Added CO2,[2]; [7],0.82 g
same,Solubility of CO2,[2]; [8],11 g/kg
same,Solubility of CO2,"[2]; glycerol 88.2, nicotine 2, water 9.8, TF 0, PG 0 wt %, estd density 1.23 kg/l",14 g/L
same,Added CO2,[2]; [8],0.56 g
same,Solubility of CO2,[2]; [9],18 g/kg
same,Solubility of CO2,"[2]; glycerol 90.25, nicotine 5, water 4.75, TF 0, PG 0 wt %, estd density 1.24 kg/l",23 g/L
same,Added CO2,[2]; [9],0.91 g
same,Solubility of CO2,[2]; [10],10 g/kg
same,Solubility of CO2,"[2]; glycerol 93.1, nicotine 2, water 4.9, TF 0, PG 0 wt %, estd density 1.25 kg/l",13 g/L
same,Added CO2,[2]; [10],0.51 g

# — patent publication US11690396B2, “Electronic cigarette compositions, devices, and related methods” (ZANOPRIMA LIFESCIENCES LIMITED, priority 2018, dated 2023)
